From US8835634B2, “Quinoxalinone derivatives as insulin secretion stimulators, methods for obtaining them and use thereof for the treatment of diabetes” (Merck Patent GmbH, priority 2008, dated 2014)

Key:
INS-1 cells = assay: Insulin secretion assay in INS-1 cells (glucose at 4.2 mM); assay type: cell-based, rat; settings: glucose 4.2 mM, 1 h incubation, control = glucose 4.2 mM; for Insulin secretion, % of ctrl at 10 μM of cpd: 10 μM compound; for Insulin secretion, % of ctrl at 50 μM of cpd: 50 μM compound
Method: Culture of Pancreatic INS-1 Cells
INS-1 cells were cultured in complete medium, RPMI1640 containing 1 mM sodium pyruvate, 50 μM 2-mercaptoethanol, 2 mM glutamine, 10 mM HEPES, 100 IU/mL penicillin, and 100 μg/mL streptomycin (CM), supplemented with 10 mM glucose, and 10% (vol/vol) heat-inactivated fetal calf serum (FCS), as described by Asfari et al. (Endocrinology 130: 167-178, 1992).
INS-1 cells were plated and cultured in 48-well plates. After 2 days of culture, the medium was removed and cells were cultured for 24 h with a medium change to 5 mM glucose, 1% FCS. The cells were then washed with Krebs-Ringer Bicarbonate HEPES buffer (KRBH; 135 mM NaCl; 3.6 mM KCl; 5 mM NaHCO3; 0.5 mM NaH2PO4; 0.5 mM MgCl2; 1.5 mM CaCl2 and 10 mM HEPES; pH 7.4) 0.1% BSA containing 2.8 mM glucose and preincubated for 30 min at 37° C. in the same buffer. The cells were then washed twice and incubated for 1 h in KRBH 0.1% BSA containing 4.2 mM glucose and different concentrations of the tested molecule. Insulin concentration in the collected supernatants was measured with ELISA using rat insulin antibody (Insulin Rat Elit PLUS, cat. ref 10-1145-01).
Insulin secretion results are expressed in % of control (glucose 4.2 mM).
Insulin Secretion in INS-1 Cells (Glucose at 4.2 mM)

[1] = tested on: diabetic N0STZ rat islets; assay: Insulin secretion in diabetic N0STZ rat islets; assay type: cell-based; settings: 90 min, Means±SEM
Method: Insulin Secretion in Diabetic N0STZ Rat Islets. Materials and Methods. Islets Isolation and Treatments.
14±3 weeks non-fasted N0STZ (PORTHA et al., 1974) male rats (Charles Rivers-Domaine des Oncins, I'Arbresle, France) were anesthetised with sodium pentobarbital (Nembutal®: 45 mg/kg in 5 ml/kg administered intra peritoneally) and body temperature was maintained with a heat lamp.
Rat pancreatic islets of Langerhans were isolated from the pancreas of 8 rats by collagenase P (Boehringer, Meylan, France) digestion. Islets were purified by sedimentation in Hanks balanced salt solution [NaCl (137 mM); KCl (5.36 mM); MgSO4, 7 H2O (0.81 mM); Na2HPO4, 12 H2O (0.34 mM); KH2PO4 (0.44 mM); CaCl2, 2 H2O (1.26 mM); NaHCO3 (4.17 mM)] followed by Ficoll gradient separation. Islets were then hand-picked under stereoscopic microscope and batches of 3 islets were incubated for 90 minutes at 37° C. with continuous shaking under a humidified condition (95% O2, 5% CO2) in 1 ml of Krebs/Hepes pH 7 solution [NaCl (115 mM), NaHCO3 (24 mM), KCl (5 mM), MgCl2 (1 mM), CaCl2, 2 H2O (1 mM), 0.2% of Bovine serum albumin (Fraction V, fatty acid free, Boehringer, Mannheim), 10 mM Hepes] containing the required glucose or compound concentration. Compounds were dissolved in DMSO at 2.10-2M stock solutions. They were then diluted at the required concentration in Krebs/Hepes buffer containing the required glucose concentration.
At the end of incubation, media was collected and insulin levels were measured using ELISA (EUROBIO, Courtaboeuf, France).
Islets were hand-picked and incubated in the presence of increasing concentrations of compounds in the presence of glucose at 2.8 or 8 mM. At the end of incubation, media was collected and insulin levels were measured using ELISA method. Results are expressed as % of glucose control (2.8 or 8 mM) and represent Means±SEM.

[2] = glucose 2.8 mM, compound 10−4 M

SMILES	Insulin secretion, % of ctrl at 10 μM of cpd (INS-1 cells)	Insulin secretion, % of ctrl at 50 μM of cpd (INS-1 cells)	melting point [°C]	further results
CCn1c(=O)c(-c2ccc(C)cc2)nc2ccccc21 [Example 6-4, 1-ethyl-3-(4-methylphenyl)quinoxalin-2(1H)-one]	305 % of ctrl	391 % of ctrl		
CCCCn1c(=O)c(CC)nc2ccccc21 [Example 3-29, 1-butyl-3-ethylquinoxalin-2(1H)-one]			48 to 51	
O=c1c(-c2ccccc2)nc2ccccc2n1CC(F)F [Example 3, 1-(2,2-difluoroethyl)-3-phenyl-quinoxalin-2(1H)-one]			85 to 88	
CCn1c(=O)c(-c2ccc(F)cc2)nc2cc(F)c(F)cc21 [Example 3-9, 1-ethyl-6,7-difluoro-3-(4-fluorophenyl)quinoxalin-2(1H)-one]			116 to 118	
CCn1c(=O)c(-c2ccc(C(F)(F)F)cc2)nc2ccccc21 [Example 6-7, 1-ethyl-3-(4-trifluoromethylphenyl)quinoxalin-2(1H)-one]	221 % of ctrl	466 % of ctrl		
CCn1c(=O)c(-c2ccc(F)cc2C)nc2ccccc21 [Example 6-5, 1-ethyl-3-(4-fluoro-2-methylphenyl)quinoxalin-2(1H)-one]	287 % of ctrl	325 % of ctrl		
O=c1c(-c2ccccc2)nc2ccccc2n1C1CC1 [Example 3-11, 1-cyclopropyl-3-phenylquinoxalin-2(1H)-one]	371 % of ctrl	468 % of ctrl	102 to 105	
CCc1nc2ccccc2n(C2CC2)c1=O [Example 3-33, 1-cyclopropyl-3-ethylquinoxalin-2(1H)-one]			77 to 80	
CCCc1nc2ccccc2n(C2CC2)c1=O [Example 3-32, 1-cyclopropyl-3-propylquinoxalin-2(1H)-one]			72 to 75	
CCc1nc2cc(F)c(F)cc2n(CC)c1=O [Example 3-24, 1,3-diethyl-6,7-difluoro-quinoxalin-2(1H)-one]			117 to 119	
CCn1c(=O)c(-c2ccc(F)cc2)nc2ccccc21 [Example 6-3, 1-ethyl-3-(4-fluorophenyl)quinoxalin-2(1H)-one]	316 % of ctrl	423 % of ctrl	110 to 115	Insulin secretion, % of glucose control [1, 2]: 114 ± 17 % of glucose control; Insulin secretion, % of glucose control ([1]; glucose 8 mM, compound 10−4 M): 440 ± 8 % of glucose control; Insulin secretion, % of glucose control ([1]; glucose 8 mM, compound 10−5 M): 168 ± 9 % of glucose control; Insulin secretion, % of glucose control ([1]; glucose 8 mM, compound 10−6 M): 135 ± 11 % of glucose control; Insulin secretion, % of glucose control ([1]; glucose 8 mM, compound 10−7 M): 133 ± 8 % of glucose control
O=c1c(-c2ccc(F)cc2)nc2ccccc2n1C1CC1 [Example 3-14, 1-cyclopropyl-3-(4-fluorophenyl)quinoxalin-2(1H)-one]			179 to 182	
CCn1c(=O)c(-c2ccc(Cl)cc2)nc2ccccc21 [Example 6, 3(4-chlorophenyl)-1-ethyl-quinoxalin-2(1H)-one]	325 % of ctrl	495 % of ctrl	138 to 140	Insulin secretion, % of glucose control [1, 2]: 94 ± 17 % of glucose control; Insulin secretion, % of glucose control ([1]; glucose 8 mM, compound 10−4 M): 413 ± 7 % of glucose control; Insulin secretion, % of glucose control ([1]; glucose 8 mM, compound 10−5 M): 226 ± 12 % of glucose control; Insulin secretion, % of glucose control ([1]; glucose 8 mM, compound 10−6 M): 124 ± 8 % of glucose control; Insulin secretion, % of glucose control ([1]; glucose 8 mM, compound 10−7 M): 126 ± 9 % of glucose control
CCCCn1c(=O)c(-c2ccccc2)nc2ccccc21 [Example 3-16, 1-butyl-3-phenyl-quinoxalin-2(1H)-one]			40 to 43	
O=c1c(-c2ccc(F)cc2)nc2ccccc2n1CC(F)F [Example 3-34, 1-(2,2-difluoroethyl)-3-(4-fluorophenyl)quinoxalin-2(1H)-one]			151 to 154	
CCn1c(=O)c(-c2ccc(Cl)cc2)nc2cc(F)c(F)cc21 [Example 3-10, 1-ethyl-6,7-difluoro-3-(4-chlorophenyl)quinoxalin-2(1H)-one]			135 to 137	
O=c1c(-c2ccc(Cl)cc2)nc2ccccc2n1C1CC1 [Example 3-3, 3-(4-chlorophenyl)-1-cyclopropyl-quinoxalin-2(1H)-one]			102 to 105	
O=c1c(-c2ccc(Cl)cc2)nc2ccccc2n1CC(F)F [Example 3-2, 3-(4-chlorophenyl)-1-(2,2-difluoroethyl)quinoxalin-2(1H)-one]	540 % of ctrl	666 % of ctrl	133 to 136	
